Data published in US20230011398A1, “COMBINATION THERAPY APPROACH TO ELIMINATE HIV INFECTIONS” (priority 2019, published 2023).

Tests used:
[1] = system: CD4+ T cells with or without infection by HIV-1; assay: Western blot of caspases, Bcl-2 family and LC3 after IDB; format: cell-based, human
Method: Western blot. PBMC CD4^+ T cells with or without infection by HIV-1 cultured for 4 days with CCL19 as in FIG. 1a. The cells were then cultured in the absence or presence of 0.1 μM IDB for 24 h. The cells were lysed in lysis buffer containing 50 mM HEPES, pH 7.5, 150 mM NaCl, 1 mM EDTA, 1% Triton X-100, 1X protease inhibitor mixture (Roche Applied Science) and 10 μM Benzyloxycarbonyl-Val-Ala-Asp (OMe) fluoromethylketone (zVAD-FMK, ENZO Life Sciences). The cell lysates were determined by the Bradford assay (Bio-Rad). Samples were used for SDS-PAGE and Western blot analyses by probing with different antibodies: monoclonal antibodies to caspase-9 (1:1,000, M054-3, clone 5B4) and caspase-7 (1:1,000, M053-3, clone 4G2) from Medical & Biological Laboratories; polyclonal rabbit antibodies to Atg-7 (1:1,000, 2631S), cleaved caspase-9 (1:1,000, 52873s), caspase-3 (1:1,000, 9665s); cleaved caspase-3 (1:1,000, 9501s), caspase-6 (1:1,000, 9762s), Mc1-1 (1:1,000, 5453s), Bcl-2 (1:1,000, 4223s), Bcl-xL (1:1,000, 2762s), Bak (1:1,000, 12105s), Bax (1:1,000, 2772s), LC3 (1:1000, 4108s) from Cell Signaling Technology and monoclonal antibody to β-Actin (1:50,000, sc-47778, clone C4) from Santa Cruz Biotechnology. The blots were them incubated with HRP-conjugated goat anti-Mouse IgG1 (1:50,000, 1070-05, Southern Biotech) or HRP-conjugated goat anti-Rabbit IgG (1:50,000, ab6721, Abcam) and developed using SuperSignal West Dura Extended Duration Substrate (ThermoFisher).

[2] = system: HIV-1-infected cells and uninfected bystander T cells; assay: Mixed culture of HIV-1-infected and CellTrace Violet-labeled uninfected T cells; conditions: alone or together, 0.2 μM BMS-626529 present, 48 h
Method: To determine the specificity in the killing of HIV-1 infected cells, uninfected CD4 cells were labeled with CellTrace Violet dye (ThermoFisher Scientific) and mixed with HIV-1-infected cells at the ratio of 1:1. The cells were resuspended in RIPMI complete medium containing 0.2 μM BMS-626529, with 0.1 μM IDB, 0.2 μM ABT-263 and 2 μM SAR405 as indicated for 48 h. The cells were incubated with 1 μM FITC-DEVD-FMK, followed by staining with APC-Annexin and analyses by flow cytometry.

[3] = HIV-1-infected T cells, IDB 24 h

CC1=C[C@]23C(=O)[C@@H](C=C(COC(=O)c4ccccc4)[C@@H](O)[C@]2(O)[C@H]1OC(=O)c1ccccc1)[C@H]1[C@@H](C[C@H]3C)C1(C)C [IDB, ingenol 3,20-dibenzoate]
expression of anti-apoptotic Bcl-xL and Mcl-1 ([1]; CD4+ T cells not infected with HIV-1, IDB 24 h): increased the expression
activation of caspase-9, caspase-3, caspase-6 and caspase-7 [1, 3]: induced the activation
expression of Bcl-xL and Mcl-1 [1, 3]: induced the expression of Bcl-xL and Mcl-1
expression of anti-apoptotic Bcl-2 ([1]; IDB 24 h): did not change
expression of LC3 ([1]; T cell with or without HIV-1 infections, IDB 24 h): induced the expression of LC3
increase in Bcl-xL expression in HIV-1-infected cells ([1]; compared with uninfected controls, IDB 24 h): greater than in uninfected controls
killing of HIV-1-infected cells in mixed culture [2]: killed HIV-1-infected cells
killing of uninfected bystander cells in mixed culture [2]: resistant
